Results reported in the NIST ThermoML archive (doi:10.1021/je901071x).
Numbers after ± are expanded uncertainties.

Legend:
[1] = xn = mol fraction of the nth substance listed; settings: 101 kPa, Liquid; for viscosity: Capillary tube (Ostwald / Ubbelohde) method; for mass density: Vibrating tube method
[2] = 101 kPa, Liquid; for viscosity: Capillary tube (Ostwald / Ubbelohde) method; for mass density: Vibrating tube method

CCCOC=O [propyl methanoate] + CC(C)Cc1ccccc1
[1], x1 = 1
Settings	mass density [kg/m3]	viscosity [mPa·s]
303.15 K	893.5 ± 0.9	0.477 ± 0.006
308.15 K	888.6 ± 0.9	0.456 ± 0.006
313.15 K	883.8 ± 0.9	0.431 ± 0.005

CC(C)c1ccccc1 [isopropylbenzene] + CCCOC=O
[1], x2 = 0
Settings	mass density [kg/m3]	viscosity [mPa·s]
303.15 K	852.7 ± 0.9	0.69 ± 0.008
308.15 K	849 ± 0.9	0.651 ± 0.008
313.15 K	845.4 ± 0.9	0.611 ± 0.007

CC(C)c1ccccc1 [isopropylbenzene]
[2]
Settings	mass density [kg/m3]	viscosity [mPa·s]
303.15 K	852.7 ± 0.9	0.69 ± 0.008
308.15 K	849 ± 0.9	0.651 ± 0.008
313.15 K	845.4 ± 0.9	0.611 ± 0.007

CC(C)Cc1ccccc1 [(2-methylpropyl)benzene] + CCCOC=O
[1]
Settings	mass density, 303.15 K [kg/m3]	mass density, 308.15 K [kg/m3]	mass density, 313.15 K [kg/m3]	viscosity, 303.15 K [mPa·s]	viscosity, 308.15 K [mPa·s]	viscosity, 313.15 K [mPa·s]
x2 = 0	844.4 ± 0.9	841.1 ± 0.9	837.6 ± 0.8	0.905 ± 0.011	0.848 ± 0.01	0.784 ± 0.009
x2 = 0.1508	848.8 ± 0.9	845.2 ± 0.9	841.4 ± 0.9	0.813 ± 0.01	0.771 ± 0.009	0.718 ± 0.009
x2 = 0.287	853.3 ± 0.9	849.5 ± 0.9	845.6 ± 0.9	0.743 ± 0.009	0.706 ± 0.008	0.661 ± 0.008
x2 = 0.4072	857.9 ± 0.9	854 ± 0.9	850 ± 0.9	0.687 ± 0.008	0.654 ± 0.008	0.614 ± 0.007
x2 = 0.519	862.9 ± 0.9	858.7 ± 0.9	854.5 ± 0.9	0.64 ± 0.008	0.61 ± 0.007	0.575 ± 0.007
x2 = 0.6161	867.7 ± 0.9	863.4 ± 0.9	859.1 ± 0.9	0.602 ± 0.007	0.575 ± 0.007	0.543 ± 0.007
x2 = 0.708	872.9 ± 0.9	868.5 ± 0.9	864 ± 0.9	0.569 ± 0.007	0.544 ± 0.007	0.515 ± 0.006
x2 = 0.7895	878 ± 0.9	873.4 ± 0.9	868.8 ± 0.9	0.54 ± 0.007	0.519 ± 0.006	0.492 ± 0.006
x2 = 0.8656	883.2 ± 0.9	878.4 ± 0.9	873.7 ± 0.9	0.516 ± 0.006	0.497 ± 0.006	0.471 ± 0.006
x2 = 0.9341	888.3 ± 0.9	883.4 ± 0.9	878.6 ± 0.9	0.495 ± 0.006	0.476 ± 0.006	0.451 ± 0.006

CCCCc1ccccc1 [butylbenzene]
[2]
Settings	mass density [kg/m3]	viscosity [mPa·s]
303.15 K	851.3 ± 0.9	0.901 ± 0.011
308.15 K	848 ± 0.9	0.844 ± 0.01
313.15 K	844.6 ± 0.9	0.787 ± 0.009

CCCOC=O [propyl methanoate]
[2]
Settings	mass density [kg/m3]	viscosity [mPa·s]
303.15 K	893.5 ± 0.9	0.477 ± 0.006
308.15 K	888.6 ± 0.9	0.456 ± 0.006
313.15 K	883.8 ± 0.9	0.431 ± 0.005

c1ccccc1 [benzene] + CCCOC=O
[1], x2 = 0
Settings	mass density [kg/m3]	viscosity [mPa·s]
303.15 K	867.6 ± 0.9	0.569 ± 0.007
308.15 K	863.2 ± 0.9	0.534 ± 0.006
313.15 K	858.9 ± 0.9	0.497 ± 0.006

CCCCc1ccccc1 [butylbenzene] + CCCOC=O
[1], x2 = 0
Settings	mass density [kg/m3]	viscosity [mPa·s]
303.15 K	851.3 ± 0.9	0.901 ± 0.011
308.15 K	848 ± 0.9	0.844 ± 0.01
313.15 K	844.6 ± 0.9	0.787 ± 0.009

CC(C)Cc1ccccc1 [(2-methylpropyl)benzene]
[2]
Settings	mass density [kg/m3]	viscosity [mPa·s]
303.15 K	844.4 ± 0.9	0.905 ± 0.011
308.15 K	841.1 ± 0.9	0.848 ± 0.01
313.15 K	837.6 ± 0.8	0.784 ± 0.009

c1ccccc1 [benzene]
[2]
Settings	mass density [kg/m3]	viscosity [mPa·s]
303.15 K	867.6 ± 0.9	0.569 ± 0.007
308.15 K	863.2 ± 0.9	0.534 ± 0.006
313.15 K	858.9 ± 0.9	0.497 ± 0.006

CCCOC=O [propyl methanoate] + CC(C)c1ccccc1
[1]
Settings	mass density, 303.15 K [kg/m3]	mass density, 308.15 K [kg/m3]	mass density, 313.15 K [kg/m3]	viscosity, 303.15 K [mPa·s]	viscosity, 308.15 K [mPa·s]	viscosity, 313.15 K [mPa·s]
x1 = 0.1349	856 ± 0.9	852.1 ± 0.9	848.2 ± 0.9	0.652 ± 0.008	0.617 ± 0.007	0.58 ± 0.007
x1 = 0.2617	859.5 ± 0.9	855.4 ± 0.9	851.4 ± 0.9	0.617 ± 0.007	0.585 ± 0.007	0.551 ± 0.007
x1 = 0.3812	863.3 ± 0.9	859.1 ± 0.9	855 ± 0.9	0.585 ± 0.007	0.557 ± 0.007	0.526 ± 0.006
x1 = 0.487	867.1 ± 0.9	862.7 ± 0.9	858.5 ± 0.9	0.559 ± 0.007	0.533 ± 0.006	0.504 ± 0.006
x1 = 0.5882	871 ± 0.9	866.5 ± 0.9	862.2 ± 0.9	0.537 ± 0.006	0.513 ± 0.006	0.485 ± 0.006
x1 = 0.6817	875.1 ± 0.9	870.4 ± 0.9	866 ± 0.9	0.517 ± 0.006	0.495 ± 0.006	0.468 ± 0.006
x1 = 0.7675	879.2 ± 0.9	874.4 ± 0.9	869.8 ± 0.9	0.506 ± 0.006	0.485 ± 0.006	0.459 ± 0.006
x1 = 0.8499	883.5 ± 0.9	878.6 ± 0.9	873.9 ± 0.9	0.494 ± 0.006	0.474 ± 0.006	0.448 ± 0.005
x1 = 0.9277	888.1 ± 0.9	883 ± 0.9	878.2 ± 0.9	0.484 ± 0.006	0.464 ± 0.006	0.439 ± 0.005
x1 = 1	893.5 ± 0.9	888.6 ± 0.9	883.8 ± 0.9	0.477 ± 0.006	0.456 ± 0.006	0.431 ± 0.005

CCCOC=O [propyl methanoate] + CCCCc1ccccc1
[1]
Settings	mass density, 303.15 K [kg/m3]	mass density, 308.15 K [kg/m3]	mass density, 313.15 K [kg/m3]	viscosity, 303.15 K [mPa·s]	viscosity, 308.15 K [mPa·s]	viscosity, 313.15 K [mPa·s]
x1 = 0.1483	854.7 ± 0.9	851 ± 0.9	847.3 ± 0.9	0.823 ± 0.01	0.772 ± 0.009	0.723 ± 0.009
x1 = 0.2855	858.4 ± 0.9	854.6 ± 0.9	850.7 ± 0.9	0.753 ± 0.009	0.71 ± 0.008	0.667 ± 0.008
x1 = 0.4066	862.2 ± 0.9	858.2 ± 0.9	854.3 ± 0.9	0.696 ± 0.008	0.658 ± 0.008	0.619 ± 0.007
x1 = 0.5164	866.2 ± 0.9	862.1 ± 0.9	858 ± 0.9	0.649 ± 0.008	0.616 ± 0.007	0.58 ± 0.007
x1 = 0.6148	870.3 ± 0.9	866 ± 0.9	861.8 ± 0.9	0.609 ± 0.007	0.579 ± 0.007	0.546 ± 0.007
x1 = 0.7042	874.5 ± 0.9	870.1 ± 0.9	865.8 ± 0.9	0.575 ± 0.007	0.547 ± 0.007	0.517 ± 0.006
x1 = 0.7884	879.1 ± 0.9	874.5 ± 0.9	869.9 ± 0.9	0.545 ± 0.007	0.52 ± 0.006	0.491 ± 0.006
x1 = 0.8642	883.8 ± 0.9	879 ± 0.9	874.2 ± 0.9	0.519 ± 0.006	0.497 ± 0.006	0.47 ± 0.006
x1 = 0.9339	888.6 ± 0.9	883.7 ± 0.9	878.7 ± 0.9	0.498 ± 0.006	0.476 ± 0.006	0.451 ± 0.006
x1 = 1	893.5 ± 0.9	888.6 ± 0.9	883.8 ± 0.9	0.477 ± 0.006	0.456 ± 0.006	0.431 ± 0.005

CCCOC=O [propyl methanoate] + c1ccccc1
[1]
Settings	mass density, 303.15 K [kg/m3]	mass density, 308.15 K [kg/m3]	mass density, 313.15 K [kg/m3]	viscosity, 303.15 K [mPa·s]	viscosity, 308.15 K [mPa·s]	viscosity, 313.15 K [mPa·s]
x1 = 0.0918	869.6 ± 0.9	865.1 ± 0.9	860.6 ± 0.9	0.54 ± 0.007	0.512 ± 0.006	0.479 ± 0.006
x1 = 0.1874	871.4 ± 0.9	866.8 ± 0.9	862.3 ± 0.9	0.518 ± 0.006	0.49 ± 0.006	0.462 ± 0.006
x1 = 0.2822	873.6 ± 0.9	868.9 ± 0.9	864.3 ± 0.9	0.504 ± 0.006	0.476 ± 0.006	0.448 ± 0.005
x1 = 0.3785	875.8 ± 0.9	871.1 ± 0.9	866.5 ± 0.9	0.49 ± 0.006	0.466 ± 0.006	0.437 ± 0.005
x1 = 0.4767	878.2 ± 0.9	873.4 ± 0.9	868.7 ± 0.9	0.48 ± 0.006	0.456 ± 0.006	0.431 ± 0.005
x1 = 0.5772	880.6 ± 0.9	875.8 ± 0.9	871.1 ± 0.9	0.474 ± 0.006	0.449 ± 0.006	0.425 ± 0.005
x1 = 0.6802	883.4 ± 0.9	878.5 ± 0.9	873.7 ± 0.9	0.471 ± 0.006	0.451 ± 0.006	0.426 ± 0.005
x1 = 0.7854	886.2 ± 0.9	881.3 ± 0.9	876.5 ± 0.9	0.469 ± 0.006	0.448 ± 0.005	0.423 ± 0.005
x1 = 0.8924	889.4 ± 0.9	884.4 ± 0.9	879.5 ± 0.9	0.467 ± 0.006	0.446 ± 0.005	0.421 ± 0.005
x1 = 1	893.5 ± 0.9	888.6 ± 0.9	883.8 ± 0.9	0.477 ± 0.006	0.456 ± 0.006	0.431 ± 0.005
